From US12129246B1, “Hydroquinazoline derivatives for the treatment of a disease or disorder” (Novartis AG, priority 2023, dated 2024)

Molecular target: T1, human NPR1 (Homo sapiens, UniProt P16066)
T1 construct: host or cells: CHO-K1
T1 sequence (P16066 33-1061): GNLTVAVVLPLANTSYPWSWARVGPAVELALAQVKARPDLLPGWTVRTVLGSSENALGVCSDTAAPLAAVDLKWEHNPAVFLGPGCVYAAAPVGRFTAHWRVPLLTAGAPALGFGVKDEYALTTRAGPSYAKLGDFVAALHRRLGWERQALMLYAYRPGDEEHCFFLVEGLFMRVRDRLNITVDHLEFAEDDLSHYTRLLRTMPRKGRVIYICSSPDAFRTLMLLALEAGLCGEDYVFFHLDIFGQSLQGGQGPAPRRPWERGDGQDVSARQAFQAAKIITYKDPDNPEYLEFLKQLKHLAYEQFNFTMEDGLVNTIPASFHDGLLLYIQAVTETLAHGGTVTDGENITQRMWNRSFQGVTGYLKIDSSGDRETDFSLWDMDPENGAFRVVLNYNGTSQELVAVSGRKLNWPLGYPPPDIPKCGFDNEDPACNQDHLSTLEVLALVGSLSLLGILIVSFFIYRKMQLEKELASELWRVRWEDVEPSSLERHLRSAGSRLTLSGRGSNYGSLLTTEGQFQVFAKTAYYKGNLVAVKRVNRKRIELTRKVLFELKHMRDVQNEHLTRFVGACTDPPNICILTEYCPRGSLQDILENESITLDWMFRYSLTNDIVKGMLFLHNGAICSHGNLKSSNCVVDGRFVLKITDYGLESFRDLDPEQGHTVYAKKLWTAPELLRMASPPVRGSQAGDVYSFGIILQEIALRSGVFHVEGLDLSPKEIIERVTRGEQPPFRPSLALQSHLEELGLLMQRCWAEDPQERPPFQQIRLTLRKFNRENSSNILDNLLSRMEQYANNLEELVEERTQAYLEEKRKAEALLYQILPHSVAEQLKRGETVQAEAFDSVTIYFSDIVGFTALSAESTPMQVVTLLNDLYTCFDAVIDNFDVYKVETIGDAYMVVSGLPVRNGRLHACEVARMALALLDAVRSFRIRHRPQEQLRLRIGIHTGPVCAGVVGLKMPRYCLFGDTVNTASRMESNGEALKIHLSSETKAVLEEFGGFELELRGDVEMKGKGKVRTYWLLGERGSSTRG
Experiment: Cellular cGMP production assay, human NPR1 expressing CHO-K1 cells (CisBio HTRF)
Assay type: cell-based
Conditions: for AC50: cGMP production, 30 min at 37° C., 12-point dose-response from 30 μM; for Human NPR1 Amax (% of ANP): maximum cGMP production as percentage of the maximum cGMP produced with ANP
Experimental: Cellular cGMP is a major second messenger that mediates cell activities and is synthesized by activated NPR1 triggered by binding of the natural ligand ANP. […] The assay was performed according to manufacturer's instructions with minor deviations. […] All compound stocks were diluted in PBS+0.1% BSA at 2-fold the final assay concentration. After addition of 10 μL/well of assay buffer (PBS+0.1% BSA+1 mM IBMX) and 10 μL/well of the compounds in different concentrations (12-point dose-response with 3-fold dilutions from a top concentration of 30 μM), the plate was incubated for 30 min at 37° C. to allow for cGMP production. In parallel, a standard curve using a calibrator (contained in the kit) was generated. The cells were lysed and a mix of cGMP-d2 and anti-cGMP-cryptate was added and incubated for 1 h at room temperature. The readout was performed using an Envision plate reader (PerkinElmer) with an excitation wavelength of 317 nm and an emission wavelength of 665 nm. cGMP concentration (Delta F [° %]) was calculated according to the following formulae: […]

| AC50 | Human NPR1 Amax (% of ANP) | Compound |
| --- | --- | --- |
| 250 nM | 110.06 % of ANP | CC[C@H]([C@H]1CC[C@H](C(=O)O)CC1)N(C)c1nc2c(c(N[C@@H](CN3CCC[C@@](C)(O)C3)c3cnn(C)c3)n1)C[C@H](c1ccccc1)CC2 [Compound 182, (1R,4r)-4-((R)-1-(((R)-4-(((R)-2-((R)-3-hydroxy-3-methylpiperidin-1-yl)-1-(1-methyl-1H-pyrazol-4-yl)ethyl)amino)-6-phenyl-5,6,7,8-tetrahydroquinazolin-2-yl)(methyl)amino)propyl)cyclohexane-1-carboxylic acid] |
| 406 nM | 110.66 % of ANP | CC[C@H]([C@H]1CC[C@H](C(=O)O)CC1)N(C)c1nc2c(c(N[C@@H](CN3CCC[C@](C)(O)C3)c3cnn(C)c3)n1)C[C@H](c1ccccc1)CC2 [Compound 186, (1R,4r)-4-((R)-1-(((R)-4-(((R)-2-((S)-3-hydroxy-3-methylpiperidin-1-yl)-1-(1-methyl-1H-pyrazol-4-yl)ethyl)amino)-6-phenyl-5,6,7,8-tetrahydroquinazolin-2-yl)(methyl)amino)propyl)cyclohexane-1-carboxylic acid] |
| 362 nM | 112.78 % of ANP | CC[C@H]([C@H]1CC[C@H](C(=O)O)CC1)N(C)c1nc2c(c(N[C@@H](CN3CCC[C@](O)(CC)C3)c3cnn(C)c3)n1)C[C@H](c1ccccc1)CC2 [Compound 178, (1R,4r)-4-((R)-1-(((R)-4-(((R)-2-((R)-3-ethyl-3-hydroxypiperidin-1-yl)-1-(1-methyl-1H-pyrazol-4-yl)ethyl)amino)-6-phenyl-5,6,7,8-tetrahydroquinazolin-2-yl)(methyl)amino)propyl)cyclohexane-1-carboxylic acid] |
| 465 nM | 86.52 % of ANP | CC[C@H]([C@H]1CC[C@H](C(=O)O)CC1)N(C)c1nc2c(c(N[C@@H](CN3CCCC4(CC4)C3)c3cnn(C)c3)n1)C[C@H](c1ccccc1)CC2 [Compound 180, (1R,4r)-4-((R)-1-(methyl((R)-4-(((R)-1-(1-methyl-1H-pyrazol-4-yl)-2-(5-azaspiro[2.5]octan-5-yl)ethyl)amino)-6-phenyl-5,6,7,8-tetrahydroquinazolin-2-yl)amino)propyl)cyclohexane-1-carboxylic acid] |

Second part, the molecule before the results:

| Compound | AC50 | Human NPR1 Amax (% of ANP) |
| --- | --- | --- |
| CC[C@H]([C@H]1CC[C@H](C(=O)O)CC1)N(C)c1nc2c(c(N[C@@H](CN3CCC[C@H](C)C3)c3cn(C)nc3F)n1)C[C@H](c1ccccc1)CC2 (stereo in doubt) [Compound 185, (1R,4r)-4-((R)-1-(((R)-4-(((S)-1-(3-fluoro-1-methyl-1H-pyrazol-4-yl)-2-((S)-3-methylpiperidin-1-yl)ethyl)amino)-6-phenyl-5,6,7,8-tetrahydroquinazolin-2-yl)(methyl)amino)propyl)cyclohexane-1-carboxylic acid] | 201 nM | 98.01 % of ANP |
| CC[C@H]([C@H]1CC[C@H](C(=O)O)CC1)N(C)c1nc2c(c(N[C@@H](CN3CCC[C@@H]4C[C@@H]43)c3cnn(C)c3)n1)C[C@H](c1ccccc1)CC2 [Compound 177, (1R,4r)-4-((R)-1-(((R)-4-(((R)-2-((1S,6R)-2-azabicyclo[4.1.0]heptan-2-yl)-1-(1-methyl-1H-pyrazol-4-yl)ethyl)amino)-6-phenyl-5,6,7,8-tetrahydroquinazolin-2-yl)(methyl)amino)propyl)cyclohexane-1-carboxylic acid] | 488 nM | 107.75 % of ANP |
| CC[C@H]([C@H]1CC[C@H](C(=O)O)CC1)N(C)c1nc2c(c(N[C@@H](CN3C[C@H](C)C[C@@H](OC)C3)c3cnn(C)c3)n1)C[C@H](c1ccccc1)CC2 [Compound 183, (1R,4r)-4-((R)-1-(((R)-4-(((R)-2-((3R,5R)-3-methoxy-5-methylpiperidin-1-yl)-1-(1-methyl-1H-pyrazol-4-yl)ethyl)amino)-6-phenyl-5,6,7,8-tetrahydroquinazolin-2-yl)(methyl)amino)propyl)cyclohexane-1-carboxylic acid] | 380 nM | 98.57 % of ANP |
| CC[C@H]([C@H]1CC[C@H](C(=O)O)CC1)N(C)c1nc2c(c(N[C@@H](CN3CC[C@@H](O)[C@H](C)C3)c3cnn(C)c3)n1)C[C@H](c1ccccc1)CC2 [Compound 179, (1R,4r)-4-((R)-1-(((R)-4-(((R)-2-((3R,4R)-4-hydroxy-3-methylpiperidin-1-yl)-1-(1-methyl-1H-pyrazol-4-yl)ethyl)amino)-6-phenyl-5,6,7,8-tetrahydroquinazolin-2-yl)(methyl)amino)propyl)cyclohexane-1-carboxylic acid] | 2710 nM | 97.72 % of ANP |
| CC[C@H]([C@H]1CC[C@H](C(=O)O)CC1)N(C)c1nc2c(c(N[C@@H](CN3C[C@@H](C)C[C@H](OC)C3)c3cnn(C)c3)n1)C[C@H](c1ccccc1)CC2 [Compound 184, (1R,4r)-4-((R)-1-(((R)-4-(((R)-2-((3S,5S)-3-methoxy-5-methylpiperidin-1-yl)-1-(1-methyl-1H-pyrazol-4-yl)ethyl)amino)-6-phenyl-5,6,7,8-tetrahydroquinazolin-2-yl)(methyl)amino)propyl)cyclohexane-1-carboxylic acid] | 940 nM | 103.67 % of ANP |
| CC[C@@H](Nc1nc2c(c(N[C@@H](CN3CCCC(CF)C3)c3cnn(C)c3)n1)C[C@H](c1cccc(F)c1)CC2)[C@H]1CC[C@H](C(=O)O)CC1 (stereo partly drawn) [Compound 175, (1R,4r)-4-((1R)-1-(((6R)-4-(((1R)-2-(3-(fluoromethyl)piperidin-1-yl)-1-(1-methyl-1H-pyrazol-4-yl)ethyl)amino)-6-(3-fluorophenyl)-5,6,7,8-tetrahydroquinazolin-2-yl)amino)propyl)cyclohexane-1-carboxylic acid] | 89 nM | 109.91 % of ANP |
| CC[C@H]([C@H]1CC[C@H](C(=O)O)CC1)N(C)c1nc2c(c(N[C@@H](CN3CCC[C@H]4C[C@H]43)c3cnn(C)c3)n1)C[C@H](c1ccccc1)CC2 [Compound 176, (1R,4r)-4-((R)-1-(((R)-4-(((R)-2-((1R,6S)-2-azabicyclo[4.1.0]heptan-2-yl)-1-(1-methyl-1H-pyrazol-4-yl)ethyl)amino)-6-phenyl-5,6,7,8-tetrahydroquinazolin-2-yl)(methyl)amino)propyl)cyclohexane-1-carboxylic acid] | 359 nM | 107.70 % of ANP |
| CC[C@H]([C@H]1CC[C@H](C(=O)O)CC1)N(C)c1nc2c(c(N[C@@H](CN3CC[C@@H](OC)C3)c3cnn(C)c3)n1)C[C@H](c1ccccc1)CC2 [Compound 181, (1R,4r)-4-((R)-1-(((R)-4-(((R)-2-((R)-3-methoxypyrrolidin-1-yl)-1-(1-methyl-1H-pyrazol-4-yl)ethyl)amino)-6-phenyl-5,6,7,8-tetrahydroquinazolin-2-yl)(methyl)amino)propyl)cyclohexane-1-carboxylic acid] | 1810 nM | 101.57 % of ANP |
